Reference: patent US9113629B2, “4-amino-6-(4-substituted-phenyl)-picolinates and 6-amino-2-(4-substituted-phenyl)-pyrimidine-4-carboxylates and their use as herbicides” (DOW AGROSCIENCES LLC, priority 2013, dated 2015)
Read-outs that look alike come from different tables or passages of the source.

Columns and labels:
Type in all cases: in vivo
[1] = tested on: LOLSS: ryegrass including, Italian ryegrass (Lolium multiflorum), rigid ryegrass (Lolium rigidum), annual ryegrass (Lolium multiflorum subsp. Gaudini); experiment: Post-emergent Test III, herbicidal activity in wheat and barley; conditions: probit analysis, 21 days after application
In short: (§1)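 Plants at the second to third true-leaf stage, grown in a greenhouse at about 18/17 °C with a 14 h photoperiod, were sprayed post-emergence at 187 L/ha with the high rate and ½× to 1/16× serial dilutions in an acetone/DMSO/crop-oil/surfactant carrier. Injury was rated visually at 21 d on a 0–100% scale, and GR20–GR90 were derived by probit analysis.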

[2] = tested on: LAMSS; experiment: as above
In short: as §1

[3] = tested on: test plant species in Direct Seeded Rice; experiment: Postemergence herbicidal activity in direct seeded rice (Table 13); conditions: for pest or weed control at 35 g/ha / pest or weed control at 70 g/ha: post-emergence, 504 h; for pest or weed control at 35 g/ha: 35 g ai/ha; for pest or weed control at 70 g/ha: 70 g ai/ha
In short: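 Greenhouse-grown plants at the second or third true leaf stage were sprayed postemergence at 187 L/ha with compound in acetone/DMSO (final 16.2%/0.5%) plus aqueous Agri-dex crop oil concentrate; controls got solvent blank. Injury was rated visually 0–100% after 20-22 days, and GR20, GR50, GR80 and GR90 derived by probit analysis.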

[4] = BRAPP: broadleaf signalgrass, Brachiaria platyphylla, probit analysis
[5] = CYPSS: sedge (Cyperus difformis, esculentus, iria), probit analysis
[6] = ECHSS: barnyardgrass (Echinochloa crus-galli), junglerice (Echinochloa colonum), probit analysis
[7] = LEFSS: sprangletop (Leptochloa chinensis, Leptochloa dubia), probit analysis
[8] = SCPJU: Japanese bulrush, Scirpus juncoides, probit analysis
[9] = SEBEX: hemp sesbania, Sesbania exaltata, probit analysis
[10] = BRAPP: broadleaf signalgrass, Brachiaria platyphylla, read-out: Visual Growth Reduction (%) 21 Days After Application BRAPP
[11] = CYPSS: sedge (Cyperus difformis, esculentus, iria), read-out: Visual Growth Reduction (%) 21 Days After Application CYPSS
[12] = ECHSS: barnyardgrass (Echinochloa crus-galli), junglerice (Echinochloa colonum), read-out: Visual Growth Reduction (%) 21 Days After Application ECHSS
[13] = LEFSS: sprangletop (Leptochloa chinensis, Leptochloa dubia), read-out: Visual Growth Reduction (%) 21 Days After Application LEFSS
[14] = ORYSS: Oryza sativa, read-out: Visual Growth Reduction (%) 21 Days After Application ORYSS
[15] = SCPJU: Japanese bulrush, Scirpus juncoides, read-out: Visual Growth Reduction (%) 21 Days After Application SCPJU
[16] = SEBEX: hemp sesbania, Sesbania exaltata, read-out: Visual Growth Reduction (%) 21 Days After Application SEBEX

Nc1c(F)c(-c2ccc(Cl)c(F)c2)nc(C(=O)O)c1Cl [Compound 217]
GR50 LOLSS ([1]; dose for growth reduction of 50 percent): 32 g ai/ha | GR80 LOLSS ([1]; dose for growth reduction of 80 percent): >140 g ai/ha | pest or weed control at 35 g/ha ([2]; post-emergence, 504 h, 35 g ai/ha, read-out: Visual Growth Reduction (%) 21 Days After Application LAMSS): 95 to 100% | pest or weed control at 70 g/ha ([2]; post-emergence, 504 h, 70 g ai/ha, read-out: Visual Growth Reduction (%) 21 Days After Application LAMSS): 95 to 100% | pest or weed control at 140 g/ha ([2]; post-emergence, 504 h, 140 g ai/ha, read-out: Visual Growth Reduction (%) 21 Days After Application LAMSS): 95 to 100% | GR50 LAMSS ([2]; probit analysis, dose for growth reduction of 50 percent, 21 days after application): 1 g ai/ha | GR80 LAMSS ([2]; probit analysis, dose for growth reduction of 80 percent, 21 days after application): 2 g ai/ha | GR50 BRAPP [3, 4]: 3 g ai/ha | GR80 BRAPP [3, 4]: 5 g ai/ha | GR50 CYPSS [3, 5]: 5 g ai/ha | GR80 CYPSS [3, 5]: 11 g ai/ha | GR50 ECHSS [3, 6]: 1 g ai/ha | GR80 ECHSS [3, 6]: 1 g ai/ha | GR50 LEFSS [3, 7]: 1 g ai/ha | GR80 LEFSS [3, 7]: 3 g ai/ha | GR20 ORYSS ([3]; ORYSS: Oryza sativa (crop), probit analysis): 10 g ai/ha | GR50 SCPJU [3, 8]: 1 g ai/ha | GR80 SCPJU [3, 8]: 1 g ai/ha | GR50 SEBEX [3, 9]: 1 g ai/ha | GR80 SEBEX [3, 9]: 1 g ai/ha | pest or weed control at 35 g/ha [3, 10]: 95 to 100% | pest or weed control at 70 g/ha [3, 10]: 95 to 100% | pest or weed control at 35 g/ha [3, 11]: 95 to 100% | pest or weed control at 70 g/ha [3, 11]: 95 to 100% | pest or weed control at 35 g/ha [3, 12]: 95 to 100% | pest or weed control at 70 g/ha [3, 12]: 95 to 100% | pest or weed control at 35 g/ha [3, 13]: 95 to 100% | pest or weed control at 70 g/ha [3, 13]: 95 to 100% | pest or weed control at 35 g/ha [3, 14]: 45 to 59% | pest or weed control at 70 g/ha [3, 14]: 75 to 84% | pest or weed control at 35 g/ha [3, 15]: 95 to 100% | pest or weed control at 70 g/ha [3, 15]: 95 to 100% | pest or weed control at 35 g/ha [3, 16]: 95 to 100% | pest or weed control at 70 g/ha [3, 16]: 95 to 100%
